{"source": "BindingDB's records for doi:10.1021/jm00018a020", "about": "(Centre De Recherche Pierre Fabre, 1995)", "molecular_target": "5-hydroxytryptamine receptor 1B (Homo sapiens) (UniProt P28222)", "sequence (P28222 whole entry, looked up)": "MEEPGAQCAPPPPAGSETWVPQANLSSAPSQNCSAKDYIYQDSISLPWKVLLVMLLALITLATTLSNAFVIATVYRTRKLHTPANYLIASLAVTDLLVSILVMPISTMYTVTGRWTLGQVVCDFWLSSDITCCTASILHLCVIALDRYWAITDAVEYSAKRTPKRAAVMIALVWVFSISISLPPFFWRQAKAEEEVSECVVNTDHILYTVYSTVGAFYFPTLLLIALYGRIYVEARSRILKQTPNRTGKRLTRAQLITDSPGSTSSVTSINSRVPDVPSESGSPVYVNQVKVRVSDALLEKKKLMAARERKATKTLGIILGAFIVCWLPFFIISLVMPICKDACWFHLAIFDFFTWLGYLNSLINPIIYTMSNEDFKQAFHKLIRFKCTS", "assay": "Binding affinity for cloned human 5-hydroxytryptamine 1D receptor beta", "data": [{"smiles": "CN(C)S(=O)(=O)Nc1ccc(N2CCN(C(=O)COc3ccc4[nH]cc(CCN)c4c3)CC2)cc1", "values": [{"measurement": "Ki", "value": 1.9, "unit": "nM"}]}, {"smiles": "N#Cc1ccccc1N1CCN(C(=O)COc2ccc3[nH]cc(CCN)c3c2)CC1", "note": "[2-(4-{2-[3-(2-Amino-ethyl)-1H-indol-5-yloxy]-acetyl}-piperazin-1-yl)-benzonitrile]", "values": [{"measurement": "Ki", "value": 0.39, "unit": "nM"}]}, {"smiles": "NCCc1c[nH]c2ccc(OCC(=O)N3CCN(c4ccccc4)CC3)cc12", "note": "[2-[3-(2-Amino-ethyl)-1H-indol-5-yloxy]-1-(4-phenyl-piperazin-1-yl)-ethanone]", "values": [{"measurement": "Ki", "value": 0.4, "unit": "nM"}]}, {"smiles": "NCCc1c[nH]c2ccc(OCC(=O)N3CCN(c4ccccc4CN)CC3)cc12", "note": "[2-[3-(2-Amino-ethyl)-1H-indol-5-yloxy]-1-[4-(2-aminomethyl-phenyl)-piperazin-1-yl]-ethanone]", "values": [{"measurement": "Ki", "value": 1.8, "unit": "nM"}]}, {"smiles": "NCCc1c[nH]c2ccc(OCC(=O)N3CCN(c4ccccc4[N+](=O)[O-])CC3)cc12", "note": "[2-[3-(2-Amino-ethyl)-1H-indol-5-yloxy]-1-[4-(2-nitro-phenyl)-piperazin-1-yl]-ethanone]", "values": [{"measurement": "Ki", "value": 0.3, "unit": "nM"}]}, {"smiles": "NCCc1c[nH]c2ccc(OCC(=O)N3CCN(c4ccc(N)cc4)CC3)cc12", "note": "[2-[3-(2-Amino-ethyl)-1H-indol-5-yloxy]-1-[4-(4-amino-phenyl)-piperazin-1-yl]-ethanone]", "values": [{"measurement": "Ki", "value": 1.6, "unit": "nM"}]}, {"smiles": "NCCc1c[nH]c2ccc(OCC(=O)N3CCN(c4ccc(CN)cc4)CC3)cc12", "note": "[2-[3-(2-Amino-ethyl)-1H-indol-5-yloxy]-1-[4-(4-aminomethyl-phenyl)-piperazin-1-yl]-ethanone]", "values": [{"measurement": "Ki", "value": 2.5, "unit": "nM"}]}, {"smiles": "NCCc1c[nH]c2ccc(OCC(=O)N3CCN(c4ccc([N+](=O)[O-])cc4)CC3)cc12", "note": "[2-[3-(2-Amino-ethyl)-1H-indol-5-yloxy]-1-[4-(4-nitro-phenyl)-piperazin-1-yl]-ethanone]", "values": [{"measurement": "Ki", "value": 0.83, "unit": "nM"}]}, {"smiles": "NCCc1c[nH]c2ccc(OCCCC(=O)N3CCN(c4ccc([N+](=O)[O-])cc4)CC3)cc12", "note": "[4-[3-(2-Amino-ethyl)-1H-indol-5-yloxy]-1-[4-(4-nitro-phenyl)-piperazin-1-yl]-butan-1-one]", "values": [{"measurement": "Ki", "value": 5, "unit": "nM"}]}, {"smiles": "NCCc1c[nH]c2ccc(OCCCCC(=O)N3CCN(c4ccc([N+](=O)[O-])cc4)CC3)cc12", "note": "[5-[3-(2-Amino-ethyl)-1H-indol-5-yloxy]-1-[4-(4-nitro-phenyl)-piperazin-1-yl]-pentan-1-one]", "values": [{"measurement": "Ki", "value": 1.8, "unit": "nM"}]}, {"smiles": "NCCc1c[nH]c2ccc(OCCCCCC(=O)N3CCN(c4ccc(N)cc4)CC3)cc12", "note": "[6-[3-(2-Amino-ethyl)-1H-indol-5-yloxy]-1-[4-(4-amino-phenyl)-piperazin-1-yl]-hexan-1-one]", "values": [{"measurement": "Ki", "value": 0.31, "unit": "nM"}]}, {"smiles": "NCCc1c[nH]c2ccc(OCCCCCC(=O)N3CCN(c4ccc([N+](=O)[O-])cc4)CC3)cc12", "note": "[6-[3-(2-Amino-ethyl)-1H-indol-5-yloxy]-1-[4-(4-nitro-phenyl)-piperazin-1-yl]-hexan-1-one]", "values": [{"measurement": "Ki", "value": 0.47, "unit": "nM"}]}, {"smiles": "CN(C)CCc1c[nH]c2ccc(C[C@H]3COC(=O)N3)cc12", "note": "[(S)-4-((3-(2-(dimethylamino)ethyl)-1H-indol-5-yl)methyl)oxazolidin-2-one]", "values": [{"measurement": "Ki", "value": 4, "unit": "nM"}]}, {"smiles": "CS(=O)(=O)NCc1ccccc1N1CCN(C(=O)COc2ccc3[nH]cc(CCN)c3c2)CC1", "note": "[N-[2-(4-{2-[3-(2-Amino-ethyl)-1H-indol-5-yloxy]-acetyl}-piperazin-1-yl)-benzyl]-methanesulfonamide]", "values": [{"measurement": "Ki", "value": 0.53, "unit": "nM"}]}, {"smiles": "CS(=O)(=O)NCc1ccc(N2CCN(C(=O)COc3ccc4[nH]cc(CCN)c4c3)CC2)cc1", "note": "[N-[4-(4-{2-[3-(2-Amino-ethyl)-1H-indol-5-yloxy]-acetyl}-piperazin-1-yl)-benzyl]-methanesulfonamide]", "values": [{"measurement": "Ki", "value": 2.2, "unit": "nM"}]}, {"smiles": "NCCc1c[nH]c2ccc(OCC(=O)N3CCN(c4ccc(NC(=O)c5ccccc5)cc4)CC3)cc12", "note": "[N-[4-(4-{2-[3-(2-Amino-ethyl)-1H-indol-5-yloxy]-acetyl}-piperazin-1-yl)-phenyl]-benzamide]", "values": [{"measurement": "Ki", "value": 1.3, "unit": "nM"}]}, {"smiles": "CS(=O)(=O)Nc1ccc(N2CCN(C(=O)COc3ccc4[nH]cc(CCN)c4c3)CC2)cc1", "note": "[N-[4-(4-{2-[3-(2-Amino-ethyl)-1H-indol-5-yloxy]-acetyl}-piperazin-1-yl)-phenyl]-methanesulfonamide]", "values": [{"measurement": "Ki", "value": 2.7, "unit": "nM"}]}, {"smiles": "CS(=O)(=O)Nc1ccc(N2CCN(C(=O)CCCCCOc3ccc4[nH]cc(CCN)c4c3)CC2)cc1", "note": "[N-[4-(4-{6-[3-(2-Amino-ethyl)-1H-indol-5-yloxy]-hexanoyl}-piperazin-1-yl)-phenyl]-methanesulfonamide]", "values": [{"measurement": "Ki", "value": 1.4, "unit": "nM"}]}]}
